Legend:
Format in all cases: functional, cell-based
MDA-MB-231 = assay: Cytotoxicity against human MDA-MB-231 cells after 48 hrs by MTT assay; details: MDA-MB-231, 48 h
A549 = assay: Cytotoxicity against human A549 cells after 48 hrs by MTT assay; details: A549, 48 h
DU-145 = assay: Cytotoxicity against human DU145 cells after 48 hrs by MTT assay; details: DU-145, 48 h

O=C1N(Cc2ccc3c(c2)OCO3)c2ccccc2C12c1c(-c3ccccc3)n[nH]c1Nc1[nH]c(=O)[nH]c(=O)c12 (stereo not given)
IC50 (MDA-MB-231): 20.2 µM | IC50 (A549): 17.4 µM | IC50 (DU-145): 19.6 µM

O=C1N(Cc2ccc3c(c2)OCO3)c2ccc(Cl)cc2C12c1c(-c3ccccc3)n[nH]c1Nc1[nH]c(=O)[nH]c(=O)c12 (stereo not given)
IC50 (MDA-MB-231): 15.9 µM | IC50 (A549): 26.3 µM | IC50 (DU-145): 24.4 µM

O=C1N(Cc2ccc3c(c2)OCO3)c2ccc(Br)cc2C12c1c(-c3ccccc3)n[nH]c1Nc1[nH]c(=O)[nH]c(=O)c12 (stereo not given)
IC50 (MDA-MB-231): 13.6 µM | IC50 (A549): 14.8 µM | IC50 (DU-145): 16.5 µM

COc1cc(CN2C(=O)C3(c4cc(Cl)ccc42)c2c(-c4ccccc4)n[nH]c2Nc2[nH]c(=O)[nH]c(=O)c23)cc(OC)c1OC (stereo not given)
IC50 (MDA-MB-231): 39.8 µM | IC50 (A549): 31.3 µM | IC50 (DU-145): 32.6 µM

COc1cc(CN2C(=O)C3(C4=C(COC4=O)Nc4[nH]nc(-c5ccccc5)c43)c3cc(Cl)ccc32)cc(OC)c1OC (stereo not given)
IC50 (MDA-MB-231): 19.4 µM | IC50 (A549): 19.9 µM | IC50 (DU-145): 20.5 µM

O=C1Nc2ccccc2C12c1c(-c3ccccc3)n[nH]c1Nc1[nH]c(=O)[nH]c(=O)c12 (stereo not given)
IC50 (MDA-MB-231): 35.2 µM | IC50 (A549): 17.7 µM | IC50 (DU-145): 18.3 µM

O=C1Nc2ccc(F)cc2C12c1c(-c3ccccc3)n[nH]c1Nc1[nH]c(=O)[nH]c(=O)c12 (stereo not given)
IC50 (MDA-MB-231): 75.2 µM | IC50 (A549): 25.2 µM | IC50 (DU-145): 42.3 µM

O=C1Nc2c(F)cccc2C12c1c(-c3ccccc3)n[nH]c1Nc1[nH]c(=O)[nH]c(=O)c12 (stereo not given)
IC50 (MDA-MB-231): 66.9 µM | IC50 (A549): 18.2 µM | IC50 (DU-145): 20.7 µM

O=C1Nc2ccc(Cl)cc2C12c1c(-c3ccccc3)n[nH]c1Nc1[nH]c(=O)[nH]c(=O)c12 (stereo not given)
IC50 (MDA-MB-231): 68.4 µM | IC50 (A549): 7.92 µM | IC50 (DU-145): 15.8 µM

O=C1Nc2ccc(Br)cc2C12c1c(-c3ccccc3)n[nH]c1Nc1[nH]c(=O)[nH]c(=O)c12 (stereo not given)
IC50 (MDA-MB-231): 48.2 µM | IC50 (A549): 21.6 µM | IC50 (DU-145): 30.5 µM

O=C1Nc2ccc(I)cc2C12c1c(-c3ccccc3)n[nH]c1Nc1[nH]c(=O)[nH]c(=O)c12 (stereo not given)
IC50 (MDA-MB-231): 46.1 µM | IC50 (A549): 12.5 µM | IC50 (DU-145): 10.4 µM

Cc1ccc2c(c1)C1(C(=O)N2)c2c(-c3ccccc3)n[nH]c2Nc2[nH]c(=O)[nH]c(=O)c21 (stereo not given)
IC50 (MDA-MB-231): 63.2 µM | IC50 (A549): 7.82 µM | IC50 (DU-145): 9.63 µM

COc1ccc2c(c1)C1(C(=O)N2)c2c(-c3ccccc3)n[nH]c2Nc2[nH]c(=O)[nH]c(=O)c21 (stereo not given)
IC50 (MDA-MB-231): 28.5 µM | IC50 (A549): 23.9 µM | IC50 (DU-145): 22.9 µM

O=C1Nc2ccc([N+](=O)[O-])cc2C12c1c(-c3ccccc3)n[nH]c1Nc1[nH]c(=O)[nH]c(=O)c12 (stereo not given)
IC50 (MDA-MB-231): 63.2 µM | IC50 (A549): 7.82 µM | IC50 (DU-145): 9.63 µM

O=C1N(Cc2ccccc2)c2ccccc2C12c1c(-c3ccccc3)n[nH]c1Nc1[nH]c(=O)[nH]c(=O)c12 (stereo not given)
IC50 (MDA-MB-231): 13.1 µM | IC50 (A549): 36.2 µM | IC50 (DU-145): 18.2 µM

O=C1N(Cc2ccccc2)c2ccc(Cl)cc2C12c1c(-c3ccccc3)n[nH]c1Nc1[nH]c(=O)[nH]c(=O)c12 (stereo not given)
IC50 (MDA-MB-231): 12.6 µM | IC50 (A549): 19.9 µM | IC50 (DU-145): 20.4 µM

O=C1N(Cc2ccccc2)c2ccc(Br)cc2C12c1c(-c3ccccc3)n[nH]c1Nc1[nH]c(=O)[nH]c(=O)c12 (stereo not given)
IC50 (MDA-MB-231): 6.33 µM | IC50 (A549): 25.4 µM | IC50 (DU-145): 23.7 µM

COc1ccc2c(c1)C1(C(=O)N2Cc2ccccc2)c2c(-c3ccccc3)n[nH]c2Nc2[nH]c(=O)[nH]c(=O)c21 (stereo not given)
IC50 (MDA-MB-231): 14.5 µM | IC50 (A549): 16.8 µM | IC50 (DU-145): 21.6 µM

O=C1OCC2=C1C1(C(=O)Nc3ccccc31)c1c(-c3ccccc3)n[nH]c1N2 (stereo not given)
IC50 (MDA-MB-231): 48.9 µM | IC50 (A549): 13.5 µM | IC50 (DU-145): 25.2 µM

O=C1OCC2=C1C1(C(=O)Nc3ccc(F)cc31)c1c(-c3ccccc3)n[nH]c1N2 (stereo not given)
IC50 (MDA-MB-231): 34.6 µM | IC50 (A549): 25.2 µM | IC50 (DU-145): 28.5 µM

O=C1OCC2=C1C1(C(=O)Nc3c(F)cccc31)c1c(-c3ccccc3)n[nH]c1N2 (stereo not given)
IC50 (MDA-MB-231): 52.3 µM | IC50 (A549): 37 µM | IC50 (DU-145): 37.3 µM

O=C1OCC2=C1C1(C(=O)Nc3ccc(Cl)cc31)c1c(-c3ccccc3)n[nH]c1N2 (stereo not given)
IC50 (MDA-MB-231): 55.2 µM | IC50 (A549): 50.1 µM | IC50 (DU-145): 41.2 µM

O=C1OCC2=C1C1(C(=O)Nc3ccc(Br)cc31)c1c(-c3ccccc3)n[nH]c1N2 (stereo not given)
IC50 (MDA-MB-231): 25.1 µM | IC50 (A549): 31.6 µM | IC50 (DU-145): 20.5 µM

O=C1OCC2=C1C1(C(=O)Nc3ccc(I)cc31)c1c(-c3ccccc3)n[nH]c1N2 (stereo not given)
IC50 (MDA-MB-231): 19.8 µM | IC50 (A549): 32.8 µM | IC50 (DU-145): 21.6 µM

Cc1ccc2c(c1)C1(C(=O)N2)C2=C(COC2=O)Nc2[nH]nc(-c3ccccc3)c21 (stereo not given)
IC50 (MDA-MB-231): 62.1 µM | IC50 (A549): 15.8 µM | IC50 (DU-145): 12.9 µM

COc1ccc2c(c1)C1(C(=O)N2)C2=C(COC2=O)Nc2[nH]nc(-c3ccccc3)c21 (stereo not given)
IC50 (MDA-MB-231): 54.7 µM | IC50 (A549): 50.1 µM | IC50 (DU-145): 43.6 µM

O=C1OCC2=C1C1(C(=O)Nc3ccc([N+](=O)[O-])cc31)c1c(-c3ccccc3)n[nH]c1N2 (stereo not given)
IC50 (MDA-MB-231): 50.1 µM | IC50 (A549): 51.3 µM | IC50 (DU-145): 38.5 µM

O=C1OCC2=C1C1(C(=O)N(Cc3ccccc3)c3ccccc31)c1c(-c3ccccc3)n[nH]c1N2 (stereo not given)
IC50 (MDA-MB-231): 31.7 µM | IC50 (A549): 35.4 µM | IC50 (DU-145): 15.9 µM

O=C1OCC2=C1C1(C(=O)N(Cc3ccccc3)c3ccc(Cl)cc31)c1c(-c3ccccc3)n[nH]c1N2 (stereo not given)
IC50 (MDA-MB-231): 3.9 µM | IC50 (A549): 50.2 µM | IC50 (DU-145): 35.3 µM

O=C1OCC2=C1C1(C(=O)N(Cc3ccccc3)c3ccc(Br)cc31)c1c(-c3ccccc3)n[nH]c1N2 (stereo not given)
IC50 (MDA-MB-231): 12.5 µM | IC50 (A549): 15.8 µM | IC50 (DU-145): 8.46 µM

COc1ccc2c(c1)C1(C(=O)N2Cc2ccccc2)C2=C(COC2=O)Nc2[nH]nc(-c3ccccc3)c21 (stereo not given)
IC50 (MDA-MB-231): 5.12 µM | IC50 (A549): 14.5 µM | IC50 (DU-145): 15.2 µM

O=C1OCC2=C1C1(C(=O)N(Cc3ccc4c(c3)OCO4)c3ccccc31)c1c(-c3ccccc3)n[nH]c1N2 (stereo not given)
IC50 (MDA-MB-231): 10.1 µM | IC50 (A549): 41.2 µM | IC50 (DU-145): 11.7 µM

O=C1OCC2=C1C1(C(=O)N(Cc3ccc4c(c3)OCO4)c3ccc(Cl)cc31)c1c(-c3ccccc3)n[nH]c1N2 (stereo not given)
IC50 (MDA-MB-231): 0.35 µM | IC50 (A549): 19.9 µM | IC50 (DU-145): 15.2 µM

O=C1OCC2=C1C1(C(=O)N(Cc3ccc4c(c3)OCO4)c3ccc(Br)cc31)c1c(-c3ccccc3)n[nH]c1N2 (stereo not given)
IC50 (MDA-MB-231): 1.92 µM | IC50 (A549): 63.4 µM | IC50 (DU-145): 13.6 µM

O=c1[nH]cc(F)c(=O)[nH]1 [FLUOROURACIL]
IC50 (MDA-MB-231): 5.82 µM | IC50 (A549): 7.51 µM | IC50 (DU-145): 6.37 µM

Source: ChEMBL document CHEMBL3399961, “Sulfamic acid promoted one-pot three-component synthesis and cytotoxic evaluation of spirooxindoles” (Bioorg Med Chem Lett, 2015)
